Results on one compound are retold here after PMC10224544, “Synthesis, Structural Elucidation and Pharmacological Applications of Cu(II) Heteroleptic Carboxylates” (Pharmaceuticals, 2023).

The nature of assay [1]: Hydrogen peroxide scavenging assay. The note with it: for H2O2 free radical scavenging ability: mean ± S.E.M, n = 3. The method, then:
In addition to DPPH the ligand acids and their complexes were also evaluated for their peroxide scavenging ability test. Hydrogen peroxide (H2O2) is a biologically important, non-radical reactive oxygen species (ROS) that can influence several cellular processes. It is a weak oxidizing agent and can inactivate a few enzymes directly, usually via oxidation of essential thiol (-SH) groups. It can cross cell membranes rapidly, and inside the cell, H2O2 probably reacts with Fe^2+ (and possibly Cu^2+) ions to form the hydroxyl radical, which may be the origin of many of its toxic effects. It is, therefore, biologically advantageous for cells to control the amount of hydrogen peroxide that is allowed to accumulate.
The ligand acids and their Cu(II) carboxylates were further subjected to H2O2 scavenging ability test potential by following the procedure as per cited literature. A 2 mM solution of H2O2 was made in 50 mM phosphate buffer having a pH 7.4. In the next step, 0.1 mL of the screened compounds was added to the 0.3 mL (50 mM) of phosphate buffer, then 0.6 mL of H2O2 was added and the solution was vortexed. After following the incubation period of 10 min, the absorption was 230 nm in comparison to the blank.

The target in assay [2] is acetylcholinesterase (AChE) (Electrophorus electricus, UniProt O42275). Kind of assay: biochemical. Type of assay: biochemical. The note with it: for Inhibition of Acetylcholinesterase (%AChE Activity): n = 3. The procedure: The synthesized compounds were evaluated for acetylcholinesterase (ACh) and butyrylcholinesterase (BCh) enzyme inhibitory activities.
Chain of acetylcholinesterase (AChE) (O42275 24-633): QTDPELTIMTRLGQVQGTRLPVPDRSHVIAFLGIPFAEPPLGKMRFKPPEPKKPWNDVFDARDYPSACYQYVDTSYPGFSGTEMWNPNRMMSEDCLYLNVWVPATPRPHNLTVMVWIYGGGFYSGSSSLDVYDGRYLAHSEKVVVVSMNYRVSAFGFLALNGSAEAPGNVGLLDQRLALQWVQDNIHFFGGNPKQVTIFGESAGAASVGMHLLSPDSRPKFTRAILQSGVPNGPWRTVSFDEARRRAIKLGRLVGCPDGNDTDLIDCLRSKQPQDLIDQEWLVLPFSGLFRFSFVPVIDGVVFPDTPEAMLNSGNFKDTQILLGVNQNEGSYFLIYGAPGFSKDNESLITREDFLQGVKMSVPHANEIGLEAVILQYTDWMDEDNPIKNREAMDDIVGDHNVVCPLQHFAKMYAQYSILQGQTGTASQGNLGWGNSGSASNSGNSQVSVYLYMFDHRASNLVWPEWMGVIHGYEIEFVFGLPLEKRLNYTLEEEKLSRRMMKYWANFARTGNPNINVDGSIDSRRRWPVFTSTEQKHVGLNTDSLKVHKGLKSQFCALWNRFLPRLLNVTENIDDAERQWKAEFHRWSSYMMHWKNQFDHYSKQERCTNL
(§1) The enzymes acetylcholinesterase (AChE) and butyrylcholinesterase (BChE) play an important role in the transfer of signals and physiological function. They assist acetylcholine to hydrolyze and produce choline and acetyl group in synaptic region. So, they are considered as targets in the management of Alzheimer’s disease. Herein, the compounds under study were evaluated for their potential to inhibit acetylthiocholine iodide (AChI) and butyrylthiocholine iodide (BChI) enzymes.
(§2) The well-known Ellman’s assay was implemented to evaluate the inhibitory potential using acetylthiocholine iodide (AChI) and butyrylthiocholine iodide (BChI) as substrates, respectively. The basic principle of the assay is the hydrolysis of acetylthiocholine iodide and butyrylthiocholine iodide by their corresponding enzymes, resulting in the formation of 5-thio-2-nitrobenzoate anion.
(§3) To carry out the assay, 0.1 M buffer solution with pH 8 was prepared as per the cited literature where the pH was adjusted using KOH (potassium hydroxide). Using the freshly prepared buffer and following the dilution, final concentrations of 0.03 U/mL for AChE (518 U/mg solid) and 0.01 U/mL for BChE (7–16 U/mg) were obtained. […] After that, the final solution of each of the AChE and BChE was prepared in distilled water in the presence of […] DTNB and were stored at 8 °C. The experiment was performed by taking 205 µL of inhibitor (tested compound) along with 5 µL of prepared solutions of enzymes, followed by the addition of 5 μL DTNB reagent. They were then incubated for about 15 min in a water bath at a temperature of 30 °C. Later on, 5 µL substrate solution was added to them which were subjected to absorption check at 412 nm. […] The temperature of the spectrophotometer was adjusted at 30 °C and then, following the reaction time of 4 min, the absorbance values were noted after regular intervals. The experiment was repeated, and change in absorption with time was used to calculate the percentage activity of enzyme and enzyme inhibitor [59]. The p values, or calculated probability levels, are categorized as: 5% (p < 0.05), 1% (p < 0.01) and 0.1% (p < 0.001). p < 0.05 means statistically significant and p < 0.001 means highly statistically significant.

Assay [3] has as its target butyrylcholinesterase (BChE) (Equus caballus, UniProt P81908). Kind of assay: biochemical. The note with it: for inhibition of butyrylcholinesterase (% BChE activity): n = 3. The method, then:
as §1, §2, §3

Assay [4] in a line: DPPH scavenging assay. The note with it: for DPPH Free Radical Scavenging Ability: mean ± S.E.M, n = 3. The source says: The antioxidant potential of the free acids and their Cu(II) carboxylates was explored via the DPPH method using ascorbic acid as a reference. The DPPH, with a single unpaired electron, is capable of accepting a hydrogen or electron and gives a strong absorption at 517 nm. The absorption generally decreases when it accepts a hydrogen or electron from an antioxidant, forming a stable molecule. The results given in Table 5 indicate that the compounds under study show a moderate level of antioxidant potential. This activity may be attributed to the various structural and electronic factors like coordination geometry, redox properties, chelate ring size, degree of unsaturation, etc.. The transfer of proton or electron from an antioxidant to DPPH results in the formation of species that undergo other reactions like coupling, fragmentation, and addition, which affect the rate and stoichiometry of the reaction.
The compounds under study were subjected to DPPH scavenging ability test as per cited literature. A 0.004% solution of reagent DPPH was added to the different concentrations of tested compounds (i.e., 125, 250, 500 and 1000 μg/mL) and the reaction mixture was incubated subsequently for about thirty minutes in dark. Ascorbic acid was used as positive control. The UV-3000 O.R.I. Germany was used to record the change in absorption of the reaction mixture at 517 nm and the percentage scavenging ability of the compounds under study was determined using formula: % scavenging activity =Absorbance of control−Absorbance of compounds /Absorbance of control×100
The experiments were repeated thrice. The GraphPad Prism® (version 4.0, Sandiego, CA, USA) was used to calculate the IC50 values.

Assay [5] in a line: DPPH scavenging assay. The settings on record: Comp. Conc. 62.5 µg/mL; mean ± S.E.M, n = 3. (Loss of DPPH colour is used to gauge radical scavenging.)

Chain of butyrylcholinesterase (BChE) (P81908 whole entry): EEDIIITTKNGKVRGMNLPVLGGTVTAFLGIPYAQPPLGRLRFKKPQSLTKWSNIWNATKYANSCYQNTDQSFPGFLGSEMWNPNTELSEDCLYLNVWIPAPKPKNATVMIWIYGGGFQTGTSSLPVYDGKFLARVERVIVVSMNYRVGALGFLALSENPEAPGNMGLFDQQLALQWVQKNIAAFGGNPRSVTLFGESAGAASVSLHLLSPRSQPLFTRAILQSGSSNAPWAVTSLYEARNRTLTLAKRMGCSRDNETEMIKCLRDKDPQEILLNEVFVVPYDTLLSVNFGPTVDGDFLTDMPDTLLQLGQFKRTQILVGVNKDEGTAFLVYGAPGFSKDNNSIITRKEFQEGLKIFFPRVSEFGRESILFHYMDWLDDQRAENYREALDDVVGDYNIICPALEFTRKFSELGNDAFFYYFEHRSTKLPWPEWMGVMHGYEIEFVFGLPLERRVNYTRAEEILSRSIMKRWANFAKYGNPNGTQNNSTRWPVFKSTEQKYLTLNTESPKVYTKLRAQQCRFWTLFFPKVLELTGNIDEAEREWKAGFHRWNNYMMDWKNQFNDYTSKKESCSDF

With `N#Cc1ccncc1.N#Cc1ccncc1.O=C([O-])Cc1ccccc1Cl.O=C([O-])Cc1ccccc1Cl.O=C([O-])Cc1ccccc1Cl.O=C([O-])Cc1ccccc1Cl.[Cu+2].[Cu+2]` [Complex 2, Cu2(2-ClC6H4COO)4(4-CNPy)2], the “IC50, H2O2 free radical scavenging ability” value in assay [1] is listed as 4.50 µg/mL. For the same compound, the “H2O2 free radical scavenging ability” value is 74.17 ± 0.72 % in assay [1] (Comp. Conc. 62.5 µg/mL); 79.60 ± 0.90 ^⸸ % in assay [1] (Comp. Conc. 125 µg/mL); 85.50 ± 0.40 % in assay [1] (Comp. Conc. 250 µg/mL); 89.37 ± 1.65 % in assay [1] (Comp. Conc. 500 µg/mL); 93.55 ± 0.40 % in assay [1] (Comp. Conc. 1000 µg/mL). Also, the “IC50, Inhibition of Acetylcholinesterase” value in assay [2] is recorded as 2 µg/mL. Further, the “Inhibition of Acetylcholinesterase (%AChE Activity)” value is 71.73 ± 0.66 % in assay [2] (Comp. Conc. 62.5 µg/mL); 73.70 ± 0.35 ^⸙ % in assay [2] (Comp. Conc. 125 µg/mL); 78.07 ± 0.62 ^⸸ % in assay [2] (Comp. Conc. 250 µg/mL); 83.01 ± 0.42 ^⸸ % in assay [2] (Comp. Conc. 500 µg/mL); 87.50 ± 2.26 ^⸙ % in assay [2] (Comp. Conc. 1000 µg/mL). In assay [3], the “IC50, inhibition of butyrylcholinesterase” value turned out to be 04 µg/mL. In addition, the “inhibition of butyrylcholinesterase (% BChE activity)” value was 66.29 ± 0.43 % in assay [3] (Comp. Conc. 62.5 µg/mL); 67.23 ± 0.44 % in assay [3] (Comp. Conc. 125 µg/mL); 72.83 ± 1.07 % in assay [3] (Comp. Conc. 250 µg/mL); 76.87 ± 0.39 % in assay [3] (Comp. Conc. 500 µg/mL); 81.44 ± 0.09 % in assay [3] (Comp. Conc. 1000 µg/mL). In “DPPH scavenging assay [4]”, the “IC50, DPPH Free Radical Scavenging Ability” value came out at 3.22 µg/mL. In addition, the “DPPH Free Radical Scavenging Ability” value in the assay “DPPH scavenging assay [4]” (Comp. Conc. 125 µg/mL) is recorded as 81.20 ± 0.65 ^⸙ %; in the assay “DPPH scavenging assay [4]” (Comp. Conc. 250 µg/mL), 86.98 ± 0.85 %; in the assay “DPPH scavenging assay [4]” (Comp. Conc. 500 µg/mL) it was 91.17 ± 0.53 %; in the assay “DPPH scavenging assay [4]” (Comp. Conc. 1000 µg/mL), 95.20 ± 0.15 %; in the assay “DPPH scavenging assay [5]”, 77.80 ± 0.37 ^⸙ %.
